System: total infarct volume
Test: Dose optimization of combination of simvastatin and L-arginine, infarct volume in mice
Type: in vivo
Settings: mice injected with varying levels of simvastatin and L-arginine; predicted by statistical analysis

CCC(C)(C)C(=O)O[C@H]1C[C@@H](C)C=C2C=C[C@H](C)[C@H](CC[C@@H]3C[C@@H](O)CC(=O)O3)[C@H]21 [simvastatin]
optimal range of the combination: 1.2 to 1.4 mg/kg

From US20080145424A1, “Sustained release L-arginine formulations and methods of manufacture and use” (Enos Phramaceuticals, Inc., priority 2002, published 2008)
